# Measured values: patent US9776979B2, “EBI2 modulators” (Sanford-Burnham Medical Research Institute, priority 2013, dated 2017)
# Target: EBI2 (Homo sapiens, UniProt P32249)
# Assay: Cell-based luminescent assay (EBI2 modulation)
# Conditions: not given
# In short: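 Cells plated overnight at 37° C, then exposed to compound at 4-5 uM final with 80 nM 7a,25-OHC agonist for 60 min at 37° C. Luminescence read after 60 min detection at 25° C in the dark; values normalized to neutral and stimulator controls and plate-pattern corrected.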
# Chain of EBI2 (P32249 whole entry): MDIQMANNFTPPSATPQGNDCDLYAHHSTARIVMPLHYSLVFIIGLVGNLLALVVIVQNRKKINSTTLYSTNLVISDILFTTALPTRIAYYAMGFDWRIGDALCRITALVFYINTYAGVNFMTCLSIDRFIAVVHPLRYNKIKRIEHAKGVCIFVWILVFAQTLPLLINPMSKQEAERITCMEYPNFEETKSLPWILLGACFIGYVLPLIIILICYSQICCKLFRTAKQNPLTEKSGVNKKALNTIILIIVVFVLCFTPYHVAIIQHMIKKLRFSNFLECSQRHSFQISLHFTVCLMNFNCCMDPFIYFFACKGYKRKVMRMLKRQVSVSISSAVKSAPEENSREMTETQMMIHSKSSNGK
row,Compound,IC50 [nM]
1,"Cc1cccc(CN2CCN(C(=O)/C=C/c3ccccc3)CC2)c1 [Compound C201, (2E)-1-{4-[(3-methylphenyl)methyl]piperazinyl}-3-phenylprop-2-en-1-one]",< 100

# Same assay, conditions: cell-based luminescence; 7a,25-OHC final assay concentration 80 nM; 60 minutes incubation; read-out: IC50
row,Compound,IC50 [nM]
1,"O=C(/C=C/c1ccc(Cl)c(Cl)c1)N1CCN(S(=O)(=O)c2ccccc2)CC1 [Compound C230, (2E)-3-(3,4-dichlorophenyl)-1-[4-(phenylsulfonyl)piperazinyl]prop-2-en-1-one]",< 100
2,"O=C(/C=C/c1ccc(F)cc1)N1CCN(S(=O)(=O)c2ccc(Cl)cc2)CC1 [Compound C96, (2E)-1-{4-[(4-chlorophenyl)sulfonyl]piperazinyl}-3-(4-fluorophenyl)prop-2-en-1-one]",< 100
3,"O=C(/C=C/c1ccc(F)cc1)N1CCN(S(=O)(=O)c2cccc(Cl)c2)CC1 [Compound C138, (2E)-1-{4-[(3-chlorophenyl)sulfonyl]piperazinyl}-3-(4-fluorophenyl)prop-2-en-1-one]",< 100
4,"O=C(c1ccc2sccc2c1)N1CCN(C(c2ccccc2)c2ccccc2)CC1 [Compound C247, benzo[b]thiophen-5-yl 4-(diphenylmethyl)piperazinyl ketone]",< 100
5,"O=C(/C=C/c1ccc(Br)cc1)N1CCN(Cc2ccc(Cl)cc2F)CC1 [Compound C130, (2E)-3-(4-bromophenyl)-1-{4-[(4-chloro-2-fluorophenyl)methyl]piperazinyl}prop-2-en-1-one]",< 100
6,"O=C(C#Cc1ccc(Cl)c(Cl)c1)N1CCN(Cc2ccc(C(F)(F)F)cc2)CC1 [Compound C171, 3-(3,4-dichlorophenyl)-1-(4-{[4-(trifluoromethyl)phenyl]methyl}piperazinyl)prop-2-yn-1-one]",500 to 5000
7,"O=C(c1cc2cc(Cl)ccc2[nH]1)N1CCN(Cc2ccc(-c3ccccc3)cc2)CC1 [Compound C327, 5-chloroindol-2-yl 4-[(4-phenylphenyl)methyl]piperazinyl ketone]",< 100
8,"O=C(c1ccc2ncccc2c1)N1CCN(C(c2ccccc2)c2ccccc2)CC1 [Compound C110, 4-(diphenylmethyl)piperazinyl 6-quinolyl ketone]",< 100
9,"O=C(c1cc2ccccn2n1)N1CCN(C(c2ccccc2)c2ccccc2)CC1 [Compound C478, 4-(diphenylmethyl)piperazinyl 8-hydropyrazolo[1,5-a]pyridin-2-yl ketone]",100 to 500
10,"O=C(c1cc2cc(Cl)ccc2[nH]1)N1CCC(Oc2ccccc2)CC1 [Compound C413, 5-chloroindol-2-yl 4-phenoxypiperidyl ketone]",100 to 500

# Continued, values first:
row,IC50 [nM],Compound
1,100 to 500,6-bromoindol-2-yl 4-[(4-chlorophenyl)methyl]piperazinyl ketone [Compound C471]
2,< 100,piperazinyl 5-nitroindol-2-yl ketone [Compound C134]
3,500 to 5000,"O=C(/C=C/c1cc(Br)ccc1F)N1CCN(S(=O)(=O)c2ccc(Br)cc2)CC1 [Compound C174, (2E)-3-(5-bromo-2-fluorophenyl)-1-{4-[(4-bromophenyl)sulfonyl]piperazinyl}prop-2-en-1-one]"
4,500 to 5000,"O=C(O)c1cccc(CN2CCN(C(=O)c3cc4cc(Cl)ccc4[nH]3)CC2)c1 [Compound C188, 3-({4-[(5-chloroindol-2-yl)carbonyl]piperazinyl}methyl)benzoic acid]"
5,100 to 500,"O=C(c1cc2cc(Cl)ccc2[nH]1)N1CCN(C(=O)c2nc3ccccc3[nH]2)CC1 [Compound C288, 4-(benzimidazol-2-ylcarbonyl)piperazinyl 5-chloroindol-2-yl ketone]"
6,< 100,"O=C(/C=C/c1ccc(Cl)c(Cl)c1)N1CCN(C(=O)c2ccc(F)cc2)CC1 [Compound C20, (2E)-3-(3,4-dichlorophenyl)-1-{4-[(4-fluorophenyl)carbonyl]piperazinyl}prop-2-en-1-one]"
7,< 100,5-bromoindol-2-yl 4-[(4-chlorophenyl)carbonyl]piperazinyl ketone [Compound C85]
